Source: the NIST ThermoML archive (doi:10.1016/j.fluid.2010.04.018)

Assay: xn = mol fraction of the nth substance listed
Details: Liquid, Vibrating tube method

C1CCOC1 [tetrahydrofuran] + O=C=O
Details	mass density [kg/m3]
298.15 K, x2 = 0.388	906.5
298.15 K, x2 = 0.47	910.1
298.15 K, x2 = 0.588	912.1
298.15 K, x2 = 0.703	906.9
298.15 K, x2 = 0.828	883.3
298.15 K, x2 = 0.941	819.3
298.15 K, x2 = 0.983	763.3
313.15 K, x2 = 0.301	879.8
313.15 K, x2 = 0.428	883.6
313.15 K, x2 = 0.542	883
313.15 K, x2 = 0.665	873.1
313.15 K, x2 = 0.788	842.6
313.15 K, x2 = 0.881	787.7
313.15 K, x2 = 0.921	737.7
313.15 K, x2 = 0.938	699.9
